Some test systems named below: SNB-19 CNS; MALME-3M melanoma; NCI-H460 lung; HCT-15 colon; PC-3 prostate; SK-MEL-28 melanoma; LOX IMVI melanoma; 786-0 renal; U251 CNS; HT29 colon.
Common to all, as to assay: NCI-60 cell line screen, 48 h

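Method: 48-hour compound exposure of cells in 96-well plates, five concentrations, linear interpolation of endpoints. The concentration for 50% growth inhibition is given as GI50. The concentration for full growth arrest is given as TGI.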

As for `COC(=O)c1ccc(NC(N)=NCCC(C)(C)c2ccc(C(F)(F)F)cc2)nc1`, the GI50 is 3300 nM with SNB-19 CNS; 1700 nM in the test with MALME-3M melanoma; 2060 nM in the test on NCI-H460 lung; 1990 nM with HCT-15 colon; 3910 nM in the test on PC-3 prostate; 1640 nM with SK-MEL-28 melanoma. For the same molecule, the GI50 is 1570 nM in the test with LOX IMVI melanoma, 7640 nM in the test on 786-0 renal, 2010 nM in the test on U251 CNS and 2550 nM in the test with HT29 colon. Also, the TGI with SNB-19 CNS was determined as 11500 nM; with MALME-3M melanoma it was 3370 nM; in the test on NCI-H460 lung, 4560 nM; with HCT-15 colon, 5120 nM; in the test with PC-3 prostate, 15500 nM; in the test with SK-MEL-28 melanoma, 3230 nM. Also, the TGI in the test on LOX IMVI melanoma is 2980 nM; in the test with 786-0 renal, 28200 nM; with U251 CNS, 3890 nM; with HT29 colon, 6830 nM.
Take `N#CN1CC[C@H](C(=O)Nc2ncc(-c3ccccc3)s2)C1`: the GI50 is 1110 nM in the test with SNB-19 CNS; 232 nM in the test on MALME-3M melanoma; 423 nM with NCI-H460 lung; 312 nM in the test on HCT-15 colon; 706 nM with PC-3 prostate; 1090 nM in the test on SK-MEL-28 melanoma. For the same molecule, the GI50 in the test on LOX IMVI melanoma is 267 nM; in the test with 786-0 renal, 404 nM; in the test on U251 CNS, 545 nM; in the test on HT29 colon it was 313 nM. Further, the TGI in the test on SNB-19 CNS was 11300 nM; with MALME-3M melanoma, 1420 nM; in the test on NCI-H460 lung, 2470 nM; in the test with HCT-15 colon, 3650 nM; in the test on PC-3 prostate, 2970 nM; with SK-MEL-28 melanoma, 3010 nM. Further, the TGI was determined as 1650 nM in the test on LOX IMVI melanoma, 2480 nM in the test on 786-0 renal, 5150 nM in the test on U251 CNS and 1820 nM in the test with HT29 colon.
Regarding `Cc1cc(OC2OC(CO)C(O)C(O)C2O)ccc1O` (stereo not given), the TGI in the test on SNB-19 CNS, with MALME-3M melanoma, in the test with NCI-H460 lung, in the test with HCT-15 colon, with PC-3 prostate and with SK-MEL-28 melanoma was over 100000 nM in each case. The TGI in the test with LOX IMVI melanoma, in the test with 786-0 renal, with U251 CNS and in the test with HT29 colon was over 100000 nM each time.

The values are drawn from PubChem BioAssay (NCI).
